# Test results as given in ChEMBL document CHEMBL2346651, “Structure-activity relationship study of tachykinin peptides for the development of novel neurokinin-3 receptor selective agonists” (Bioorg Med Chem, 2013).
# Residues, ends and D or L forms follow the SMILES beside them.
# Experiments:
# [1] = biological target: Substance-P receptor (Homo sapiens) (UniProt P25103); assay: Displacement of [125I]-BH-SP from NK1R (unknown origin) transfected in CHO cells at 10 uM by gamma counting analysis; type: cell-based
# Chain of Substance-P receptor (Homo sapiens) (P25103 whole entry): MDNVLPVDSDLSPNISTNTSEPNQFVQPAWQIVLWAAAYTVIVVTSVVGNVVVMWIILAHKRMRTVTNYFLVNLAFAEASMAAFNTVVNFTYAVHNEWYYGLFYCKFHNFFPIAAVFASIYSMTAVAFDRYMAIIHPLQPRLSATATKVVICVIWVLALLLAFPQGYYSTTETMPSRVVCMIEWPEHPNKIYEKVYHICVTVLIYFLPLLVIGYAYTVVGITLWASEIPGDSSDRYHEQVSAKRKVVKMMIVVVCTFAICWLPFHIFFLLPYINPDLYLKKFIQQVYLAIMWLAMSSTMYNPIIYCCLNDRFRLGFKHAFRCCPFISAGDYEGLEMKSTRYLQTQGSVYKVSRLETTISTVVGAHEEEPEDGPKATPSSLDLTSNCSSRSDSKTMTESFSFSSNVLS
# Neuromedin-K receptor [2] = biological target: T1, Neuromedin-K receptor (Homo sapiens, UniProt P29371); assay: Agonist activity at NK3R (unknown origin) transfected in CHO cells assessed as calcium influx […]; type: functional, cell-based
# T1 sequence (P29371 whole entry): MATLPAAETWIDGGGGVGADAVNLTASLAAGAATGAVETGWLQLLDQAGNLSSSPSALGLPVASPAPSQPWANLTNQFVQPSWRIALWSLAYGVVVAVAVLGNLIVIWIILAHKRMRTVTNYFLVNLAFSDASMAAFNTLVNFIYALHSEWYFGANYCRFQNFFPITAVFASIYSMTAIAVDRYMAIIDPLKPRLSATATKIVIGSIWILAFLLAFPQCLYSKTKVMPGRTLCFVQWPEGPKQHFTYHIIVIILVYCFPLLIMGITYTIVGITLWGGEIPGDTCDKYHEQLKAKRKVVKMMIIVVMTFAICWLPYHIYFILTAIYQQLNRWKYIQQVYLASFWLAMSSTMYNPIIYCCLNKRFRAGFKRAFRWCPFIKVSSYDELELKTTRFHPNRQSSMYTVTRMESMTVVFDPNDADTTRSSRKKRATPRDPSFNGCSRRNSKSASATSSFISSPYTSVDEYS
# Neuromedin-K receptor [3] = biological target: T1, Neuromedin-K receptor; assay: Displacement of ([125I]-His3, MePhe7)-NKB from NK3R (unknown origin) transfected in CHO cells by gamma counting analysis; type: cell-based
# [4] = biological target: T2, Substance-K receptor (Homo sapiens) (UniProt P21452); assay: Displacement of [125I]-NKA from NK2R (unknown origin) transfected in CHO cells at 10 uM by gamma counting analysis; type: cell-based
# T2 sequence (whole entry): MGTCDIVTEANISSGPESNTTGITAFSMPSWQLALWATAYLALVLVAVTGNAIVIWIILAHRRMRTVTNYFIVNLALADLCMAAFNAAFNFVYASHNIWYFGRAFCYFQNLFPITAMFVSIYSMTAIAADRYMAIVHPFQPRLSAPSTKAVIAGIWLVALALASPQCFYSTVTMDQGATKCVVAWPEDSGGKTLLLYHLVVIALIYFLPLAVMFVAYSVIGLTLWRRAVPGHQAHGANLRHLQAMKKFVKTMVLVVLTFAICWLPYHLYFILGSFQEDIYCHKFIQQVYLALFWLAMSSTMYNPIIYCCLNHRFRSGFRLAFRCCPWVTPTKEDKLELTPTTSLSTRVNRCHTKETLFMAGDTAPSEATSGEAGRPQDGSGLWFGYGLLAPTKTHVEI
SMILES,inhibition [1] [%],EC50 (Neuromedin-K receptor [2]) [nM],IC50 (Neuromedin-K receptor [3]) [nM],inhibition [4] [%]
CSCC[C@H](NC(=O)[C@H](CC(C)C)NC(=O)CNC(=O)[C@H](Cc1ccccc1)N(C)C(=O)[C@H](Cc1ccccc1)NC(=O)[C@H](CO)NC(=O)[C@H](CC(=O)O)NC(=O)[C@H](Cc1cnc[nH]1)NC(=O)[C@H](CCSC)NC(=O)[C@@H](N)CC(=O)O)C(N)=O (HELM PEPTIDE1{D.M.H.D.S.F.[meF].G.L.M.[am]}$$$$V2.0),< 10,0.04,3.6,31
CSCC[C@H](NC(=O)[C@H](CC(C)C)NC(=O)CNC(=O)[C@H](Cc1ccccc1)N(C)C(=O)[C@H](Cc1ccccc1)NC(=O)[C@H](CCC(=O)O)NC(=O)[C@H](CC(=O)O)NC(=O)[C@H](Cc1cnc[nH]1)NC(=O)[C@H](CCSC)NC(=O)[C@@H](N)CC(=O)O)C(N)=O (HELM PEPTIDE1{D.M.H.D.E.F.[meF].G.L.M.[am]}$$$$V2.0),< 10,0.024,7.5,< 10
CSCC[C@H](NC(=O)[C@H](CC(C)C)NC(=O)CNC(=O)[C@H](Cc1ccccc1)N(C)C(=O)[C@H](Cc1ccccc1)NC(=O)[C@@H]1CCCN1C(=O)[C@H](CC(=O)O)NC(=O)[C@H](Cc1cnc[nH]1)NC(=O)[C@H](CCSC)NC(=O)[C@@H](N)CC(=O)O)C(N)=O (HELM PEPTIDE1{D.M.H.D.P.F.[meF].G.L.M.[am]}$$$$V2.0),< 10,0.041,45,38
CSCC[C@H](NC(=O)[C@H](CC(C)C)NC(=O)CNC(=O)[C@H](Cc1ccccc1)N(C)C(=O)[C@H](Cc1ccccc1)NC(=O)[C@H](CC(=O)O)NC(=O)[C@H](CC(N)=O)NC(=O)[C@@H]1CCCN1C(=O)[C@H](CC(=O)O)NC(=O)[C@H](C)NC(=O)[C@@H]1CCC(=O)N1)C(N)=O (HELM PEPTIDE1{[Glp].A.D.P.N.D.F.[meF].G.L.M.[am]}$$$$V2.0),87,0.15,54,< 10
